In US9446053B2, “Method for enhancing the secretion of GLP-1 using bitter compounds” (priority 2013, dated 2016):
Where two headings read alike, the source gives them in different places.

What was measured:
[1] = tested on: intestinal endocrine cell line STC-1; experiment: Bitter compound stimulating the secretion of GLP-1 of STC-1 cells (GLP-1 ELISA normalised to MTT cell viability, vehicle = 1); assay type: cell-based, mouse; conditions: for fold induction at 1000 µM: 1 mM; for secretion of GLP-1, fold comparing to the vehicle group: p<0.05
Procedure: The embodiment of the present invention use a proglucagon-expression cell line STC-1 for study. The STC-1 cells are divided into the experimental groups and the control group. […] The secretion of GLP-1 is obtained by calculating the data gathered from the experiment using the standard curve after treating intestinal endocrine cell line STC-1 with different bitter compounds. Cell viability is measured by MTT assay after treating intestinal endocrine cell line STC-1 with different bitter compounds. The ratio of the amount of GLP-1 secreted to the cell viability in each experiment is the fold of that given bitter compound stimulating the secretion of GLP-1 of the intestinal endocrine cell line STC-1. […] Moreover, co-administering specific bitter compound, bitter taste receptor inhibitor or phospholipase C (PLC) inhibitor can further determine the bitter taste receptor corresponded to the bitter compound. The above mentioned testing methods are explained in detailed as follow:
For the embodiment of the ability of bitter compound stimulating secretion of GLP-1 of the intestinal endocrine cell line STC-1, the experiment procedure of the stimulation of GLP-1 secretion is referred in FIG. 1.
(§1) S3: The STC-1 cell line was treated by a bitter compound.
(§2) S4: Supernatant was collected via centrifugation and the remaining growth medium was removed after 1 hour and the amount of cell was measured by MTT assay.
S5: Supernatant from S4 was centrifuged again at 500×g for 5 minutes. After eliminating cell debris, the resulting supernatant was collected and stored at −80° C. for the analysis of GLP-1 secretion using commercial kit Millipore EGLP-35K. The sensitivity of the kit is between 2-100 pM. […] The result was shown in the amount of GLP-1 secreted per unit cell. To prevent over-discrepant results between batches and for the ease of statistic, each vehicle group was taken as 1, which is the comparison of result of each sample of that experiment.
(§3) Before measuring the amount of GLP-1 secreted, all reagents were placed on ice until fully dissolved. 10× washing buffer concentrate were diluted 10 times using distilled water; STC-1 cell line was dissolved using 1 mL distilled water and was diluted 200 times using phosphate buffered saline (PBS). 300 μL/well of 1× wash buffer were added and were placed for 5 minutes at room temperature then were poured out. 200 μL/well of assay buffer were added to NSB, while 100 μL/well of assay buffer were added to the remaining wells. 100 μL of Standards, QC or STC-1 cell line were then added to the wells accordingly, and then the 96-well plate was shaken moderately for an even mixture within each well. Plates were then being sealed allowing reaction to take place at 4° C. for 20-24 hours. Plates were then washed 5 times by 300 μL/well of 1× wash buffer and placed for 5 minutes. 200 μL/well of detection conjugate was added allowing reactions to take place at room temperature for 2 hours. It was then washed 3 times by 300 μL/well of 1× wash buffer. 200 μL/well of diluted STC-1 cell line was added allowing reaction to take place at room temperature and light-free environment for approximately 20 minutes. 50 μL/well of stop solution was added to stop the reaction at room temperature and light-free environment for 5 minutes. Finally, the concentration of GLP-1 was calculated using the data obtained and the standard curve.
Principle of MTT assay: Methylthiazolyldiphenyl-tetrazolium bromide (MTT), or 3-(4,5-cimethylthiazol-2-yl)-2,5-diphenyl tetrazolium bromide, is a yellow dye which can be reduced by dehydrogenase of mitochondria in living cells, forming an insoluble purple crystal, formazan. Thus, it is often used for the screening of the effect of materials upon the cell growth and proliferation.

[2] = tested on: intestinal endocrine cell line STC-1; experiment: GLP-1 secretion of STC-1 cells when allyl isothiocyanate and bitter taste receptor inhibitor probenecid are co-administered; assay type: cell-based, mouse
Source text: The embodiment of the present invention use a proglucagon-expression cell line STC-1 for study. The STC-1 cells are divided into the experimental groups and the control group. The control groups are also called vehicle groups, which is the comparison of result of each experiment taken as 1. The secretion of GLP-1 is obtained by calculating the data gathered from the experiment using the standard curve after treating intestinal endocrine cell line STC-1 with different bitter compounds. Cell viability is measured by MTT assay after treating intestinal endocrine cell line STC-1 with different bitter compounds. The ratio of the amount of GLP-1 secreted to the cell viability in each experiment is the fold of that given bitter compound stimulating the secretion of GLP-1 of the intestinal endocrine cell line STC-1. By comparing experimental groups and vehicle groups, the difference between different bitter compounds in terms of their ability to stimulate the secretion of GLP-1 of the intestinal endocrine cell line STC-1 can be observed. Moreover, co-administering specific bitter compound, bitter taste receptor inhibitor or phospholipase C (PLC) inhibitor can further determine the bitter taste receptor corresponded to the bitter compound. The above mentioned testing methods are explained in detailed as follow:
S1: 6.39×10^4 cells were planted with 10% FBS DMEM (high glucose) in 48-well culture tray and were incubated for 48 hours.
S2: After 48 hours when the cell growth reached 85%, culture medium was changed into 10% FBS DMEM (low glucose) for a 3-hour starvation and then followed by the treatment of 0.2% BSA DEME (low glucose).
as §1, §2
S5: Supernatant from S4 was centrifuged again at 500×g for 5 minutes. After eliminating cell debris, the resulting supernatant was collected and stored at −80° C. for the analysis of GLP-1 secretion using commercial kit Millipore EGLP-35K. The sensitivity of the kit is between 2-100 pM. The amount of GLP-1 secreted of each vehicle group is between 50-150 pM according to the batch, therefore, it is advised that the supernatant being diluted 4 times before the analysis. The result was shown in the amount of GLP-1 secreted per unit cell. To prevent over-discrepant results between batches and for the ease of statistic, each vehicle group was taken as 1, which is the comparison of result of each sample of that experiment.
as §3, with “Finally, the concentration of GLP-1 was calculated using the data obtained and the standard curve.” left out

[3] = Mus musculus, STC-1 cells, 1 hour treatment, vehicle = 1, read-out: Fold (largest fold of GLP-1 secretion vs vehicle group)
[4] = Mus musculus, STC-1, 1 h, read-out: Fold (largest fold of GLP-1 secretion vs vehicle group)
[5] = STC-1 cells treated by 20 μg/mL
[6] = STC-1 cells treated by 50 μg/mL
[7] = STC-1 cells treated by 100 μg/mL
[8] = STC-1 cells treated by 200 μg/mL

With CC1=CC(=O)[N-]S(=O)(=O)O1.[K+] [Acesulfame K, reference compound] the “Fold (largest fold of GLP-1 secretion vs vehicle group)” value ([1]; STC-1 cells, 10 mM, 1 hour treatment, vehicle = 1) was “↑1.90 fold”.

With C=CCN=C=S [Allyl isothiocyanate] the fold induction at 10 µM ([1]; Mus musculus, STC-1 cells, 10 μM, 1 hour treatment, vehicle = 1, read-out: Fold (largest fold of GLP-1 secretion vs vehicle group)) was 4.06, the “secretion of GLP-1 comparing to the vehicle groups (in words)” value ([1]; STC-1 cells, 1.0 μM, 2.0 μM, 5.0 μM and 10.0 μM, dose-dependent manner) was “significantly increase the secretion of GLP-1” and the “Fold (largest fold of GLP-1 secretion vs vehicle group)” value ([1]; STC-1 cells, 10 μM, 1 hour treatment, vehicle = 1) was “↑4.06 fold”. For the same molecule, the “secretion of GLP-1, fold of the vehicle group” value ([2]; 0.5 mM of probenecid jointly applied, first of three allyl isothiocyanate concentrations, p<0.001) was 1.14 fold, the “secretion of GLP-1, fold of the vehicle group” value ([2]; 0.5 mM of probenecid jointly applied, second of three allyl isothiocyanate concentrations, p<0.001) was 1.40 fold and the “secretion of GLP-1, fold of the vehicle group” value ([2]; 0.5 mM of probenecid jointly applied, third of three allyl isothiocyanate concentrations, p<0.001) was 1.93 fold. For the same molecule, the “secretion of GLP-1, fold of the vehicle group” value ([2]; 1.0 mM of probenecid jointly applied, first of three allyl isothiocyanate concentrations, p<0.001) was 0.86 fold, the “secretion of GLP-1, fold of the vehicle group” value ([2]; 1.0 mM of probenecid jointly applied, second of three allyl isothiocyanate concentrations, p<0.001) was 1.07 fold and the “secretion of GLP-1, fold of the vehicle group” value ([2]; 1.0 mM of probenecid jointly applied, third of three allyl isothiocyanate concentrations, p<0.001) was 1.51 fold. The “secretion of GLP-1, fold of the vehicle group” value ([2]; allyl isothiocyanate solely applied, first of three concentrations, p<0.05) was 1.44 fold, the “secretion of GLP-1, fold of the vehicle group” value ([2]; allyl isothiocyanate solely applied, second of three concentrations, p<0.05) was 2.05 fold and the “secretion of GLP-1, fold of the vehicle group” value ([2]; allyl isothiocyanate solely applied, third of three concentrations, p<0.05) was 3.44 fold.

Molecule COc1cc2c(cc1OC)[C@@]13CCN4CC5=CCO[C@H]6CC(=O)N2[C@H]1[C@H]6[C@H]5C[C@H]43 [Brucine, reference compound] has a fold induction at 50 µM ([1]; Mus musculus, STC-1 cells, 50 μM, 1 hour treatment, vehicle = 1, read-out: Fold (largest fold of GLP-1 secretion vs vehicle group)) of 1.54.

Molecule Cn1c(=O)c2c(ncn2C)n(C)c1=O [Caffeine, reference compound] has a fold induction at 1000 µM [1, 3] of 1.72.

For CCN(CC)CCCC(C)Nc1ccnc2cc(Cl)ccc12 (stereo not shown) [Chloroquine, reference compound], the fold induction at 5 µM [1, 4] was 1.78.

With CC(C)=C/C=C/[C@@H](C)[C@H]1CC[C@@]2(C)c3ccc4c(c3CC[C@]12C)CC[C@H](O)C4(C)C [Compound of formula II, 19-nor-cucurbita-5(10),6,8,22(E),24-pentaen-3β-ol] the “secretion of GLP-1, fold comparing to the vehicle group” value (“secretion of GLP-1, fold comparing” below) ([1]; STC-1 cells treated by 5 μg/mL) was 1.66 fold, the “secretion of GLP-1, fold comparing” value [1, 5] was 2.28 fold and the “secretion of GLP-1, fold comparing” value [1, 6] was 4.53 fold. For the same molecule, the “secretion of GLP-1, fold comparing” value [1, 7] was 6.05 fold and the “secretion of GLP-1, fold comparing” value [1, 8] was 6.16 fold.

With CC(C)=CC(O)C[C@@H](C)[C@H]1CC[C@@]2(C)[C@@H]3C=C[C@@]45OC[C@]3(CC[C@]12C)C4CC[C@H](O)C5(C)C (stereo partly drawn) [Compound of formula IV, 5β,19-epoxycucurbita-6,24-diene-3β,23ξ-diol] the “secretion of GLP-1, fold comparing” value ([1]; STC-1 cells treated by 5 μg/mL) was 1.37 fold, the “secretion of GLP-1, fold comparing” value [1, 5] was 1.49 fold and the “secretion of GLP-1, fold comparing” value [1, 6] was 1.84 fold. The “secretion of GLP-1, fold comparing” value [1, 7] was 2.76 fold and the “secretion of GLP-1, fold comparing” value [1, 8] was 3.68 fold.

CC[N+](CC)(CC(=O)Nc1c(C)cccc1C)Cc1ccccc1 [Denatonium benzoate, reference compound] showed a fold induction at 2500 µM ([1]; Mus musculus, STC-1 cells, 2.5 mM, 1 hour treatment, vehicle = 1, read-out: Fold (largest fold of GLP-1 secretion vs vehicle group)) of 2.97.

CC1(C)O[C@H]2CC(=O)OC[C@]23[C@H]2CC[C@@]4(C)[C@H](c5ccoc5)OC(=O)[C@H]5O[C@]54[C@]2(C)C(=O)C[C@@H]13 [Limonin, reference compound] was tested, and the fold induction at 200 µM ([1]; Mus musculus, STC-1 cells, 200 μM, 1 hour treatment, vehicle = 1, read-out: Fold (largest fold of GLP-1 secretion vs vehicle group)) was 1.22.

For C=C[C@H]1C[N@@]2CC[C@H]1C[C@H]2[C@H](O)c1ccnc2ccc(OC)cc12 [Quinine, reference compound], the fold induction at 80 µM ([1]; Mus musculus, STC-1 cells, 80 μM, 1 hour treatment, vehicle = 1, read-out: Fold (largest fold of GLP-1 secretion vs vehicle group)) was 1.9.

O=C1NS(=O)(=O)c2ccccc21 [Saccharin, reference compound] gave a fold induction at 1000 µM [1, 3] of 4.84.

O=C1C[C@@H]2OCC=C3CN4CC[C@]56c7ccccc7N1[C@H]5[C@H]2[C@H]3C[C@H]46 [Strychnine, reference compound] gave a fold induction at 50 µM [1, 4] of 1.91.
